Measured values: patent US20070105910A1, “Medicinal composition” (priority 2003, published 2007)
Structures can show the parent of a compound that is named as a salt.

Assay: Repeated oral administration test for 10 days using rats: blood hemoglobin (Hb)
Format: in vivo
Details: SD rats; after 10 days oral administration; pioglitazone hydrochloride 240 mg/kg/day, benfotiamine 100 mg/kg/day where combined
Experimental: After termination of the administration, the blood was collected from the rats and the hemoglobin (Hb) value was determined. Then, the rats were killed, and their hearts were weighed (relative weight).

Blood Hb conc. after administration: 13.6 g/dL
Compound: CCc1ccc(CCOc2ccc(CC3SC(=O)NC3=O)cc2)nc1 (stereo not shown) [Pioglitazone HCl, pioglitazone hydrochloride]
